Laboratory results as given in PMC5493200 (ACS infectious diseases, 2016).
Values joined by “and” are separate entries in the source; they are usually repeats but may differ in a detail not shown here. Equal values may be shown once.

Tests used:
[1] = target: Purified 70S M. smegmatis bacterial ribosomes (Mycolicibacterium smegmatis, UniProt A0QSG6); test: Ribosomal translation inhibition; type: biochemical; details: for Ribosome IC50: inhibits luciferase activity by 50%
[2] = system: M. tuberculosis H37Rv Rv1258c knockout (KO); test: microbe, parasite or virus in culture; type: cell-based; details: Tables 1-4 and text; 7 days, 7H9 broth
Rv1258c efflux pump = details: for Efflux Ratio: H37Rv MIC / Rv1258c KO MIC
M. tuberculosis H37Rv = test: microbe, parasite or virus in culture; type: cell-based, Mycobacterium tuberculosis; details: Tables 1-4 and text; […]

Sequence of Purified 70S M. smegmatis bacterial ribosomes (A0QSG6 whole entry): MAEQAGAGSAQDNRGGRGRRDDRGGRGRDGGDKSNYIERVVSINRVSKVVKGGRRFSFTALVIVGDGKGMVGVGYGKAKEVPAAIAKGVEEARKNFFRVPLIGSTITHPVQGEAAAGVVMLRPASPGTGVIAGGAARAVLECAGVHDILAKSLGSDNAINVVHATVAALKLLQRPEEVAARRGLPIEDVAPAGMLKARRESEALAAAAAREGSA

SMILES	Ribosome IC50 [1]	Rv1258c KO MIC [2] [µg/mL]	Efflux Ratio (Rv1258c efflux pump)	H37Rv MIC (M. tuberculosis H37Rv) [µg/mL]	Fold change of MIC between H37Rv and Rv1258c KO (efflux) (Rv1258c efflux pump) [fold]	IC50 ([1]; as printed in modeling section) [µM]	Fold weaker binding than 1 ([1]; relative to 1) [fold]
Br.Br.Br.CNC1C(O)C(NC)C2OC3(O)C(OC(C)C[C@H]3NC(=O)Cc3cccc(C)n3)OC2C1O (stereo partly drawn) [Compound 32, 3′-Dihydro-3′-deoxy-3′(R)-(6-methylpyridin-2-yl)acetylamino spectinomycin trihydrobromide]	0.50 µg/mL	6.3	4	25	–	–	–
Br.Br.Br.CNC1C(O)C(NC)C2OC3(O)C(OC(C)C[C@H]3NC(=O)Cc3nc4ccccc4n3C)OC2C1O (stereo partly drawn) [Compound 26, 3′-Dihydro-3′-deoxy-3′(R)-(1-methyl-1H-benzo[d]imidazol-2-yl)acetylamino spectinomycin trihydrobroride]	0.26 µg/mL	3.1	2	6.3	–	–	–
CNC1C(O)C(NC)C2OC3(O)C(NC(=O)Nc4ccccn4)CC(C)OC3OC2C1O.Cl.Cl [Compound 10, 3′-Dihydro-3′-deoxy-3′(R)-(pyridin-2-yl)aminocarbonylamino spectinomycin dihydrochloride]	2.24 µg/mL	3.1	4	12.5	–	–	–
Br.Br.Br.CNC1C(O)C(NC)C2OC3(O)C(NC(=O)Cc4ccc(N)cn4)CC(C)OC3OC2C1O [Compound 37, 3′-Dihydro-3′-deoxy-3′(R)-(5-aminopyridin-2-yl)acetylamino spectinomycin trihydrobromide]	0.30 µg/mL	6.3	–	6.3	–	–	–
Br.Br.Br.CNC1C(O)C(NC)C2OC3(O)C(NC(=O)Cc4ccc(C)cn4)CC(C)OC3OC2C1O [Compound 31, 3′-Dihydro-3′-deoxy-3′(R)-(5-methylpyridin-2-yl)acetylamino spectinomycin trihydrobromide]	0.54 µg/mL	3.1	–	3.1	–	–	–
Br.Br.Br.CNC1C(O)C(NC)C2OC3(O)C(NC(=O)Cn4cccn4)CC(C)OC3OC2C1O [Compound 22, 3′-Dihydro-3′-deoxy-3′(R)-(1H-pyrazol-1-yl)acetylamino spectinomycin trihydrobroride]	0.42 µg/mL	6.3	1	6.3	–	–	–
Br.Br.Br.CNC1C(O)C(NC)C2OC3(O)C(NC(=O)Cc4cc(OC)ccn4)CC(C)OC3OC2C1O [Compound 34, 3′-Dihydro-3′-deoxy-3′(R)-(4-methoxypyridin-2-yl)acetylamino spectinomycin trihydrobromide]	0.39 µg/mL	3.1	4	12.5	–	–	–
CNC1C(O)C(NC)C2OC3(O)C(OC(C)C[C@H]3NC(=O)Cc3cccnc3)OC2C1O.Cl.Cl.Cl (stereo partly drawn) [Compound 3, 3′-Dihydro-3′-deoxy-3′(R)-(pyridin-3yl)acetylamino spectinomycin trihydrochloride]	–	6.3	–	200	–	–	–
Br.Br.CNC1C(O)C(NC)C2OC3(O)C(NS(=O)(=O)Cc4ccccc4)CC(C)OC3OC2C1O [Compound 9, 3′-Dihydro-3′-deoxy-3′(R)-benzylsulfonylamino spectinomycin dihydrobromide]	10.97 µg/mL	12.5	>16	>200	–	–	–
Br.Br.Br.CNC1C(O)C(NC)C2OC3(O)C(OC(C)C[C@H]3NC(=O)Nc3ccccc3)OC2C1O (stereo partly drawn) [Compound 8, 3′-Dihydro-3′-deoxy-3′(R)-phenylaminocarbonylamino spectinomycin trihydrobromide]	3.77 µg/mL	25	>8	–	–	–	–
Br.Br.Br.CNC1C(O)C(NC)C2OC3(O)C(OC(C)C[C@H]3NC(=O)Cc3cnccn3)OC2C1O (stereo partly drawn) [Compound 15, 3′-Dihydro-3′-deoxy-3′(R)-(pyrazin-2-yl)acetylamino spectinomycin trihydrobromide]	–	25	1	–	–	–	–
CNC1C(O)C(NC)C2OC3(O)C(NC(=O)Cc4cc(O)ccn4)CC(C)OC3OC2C1O.Cl.Cl.Cl [Compound 35, 3′-Dihydro-3′-deoxy-3′(R)-(4-hydroxypyridin-2-yl)acetylamino spectinomycin trihydrochloride]	0.44 µg/mL	12.5	2	25	–	–	–
CNC1C(O)C(NC)C2OC3(O)C(OC(C)C[C@H]3NC(=O)Oc3ccccc3)OC2C1O.Cl.Cl (stereo partly drawn) [Compound 7, 3′-Dihydro-3′-deoxy-3′(R)-phenyloxycarbonylamino spectinomycin dihydrochloride]	16.62 µg/mL	>200	–	>200	–	–	–
CNC1C(O)C(NC)C2OC3(O)C(NC(=O)Cc4cc5ccccc5[nH]4)CC(C)OC3OC2C1O [Compound 28, 3′-Dihydro-3′-deoxy-3′(R)-(1H-indol-2-yl)acetylamino spectinomycin]	0.77 µg/mL	0.8	32	25	32	–	–
CNC1C(O)C(NC)C2OC3(O)C(OC(C)C[C@H]3NC(=O)Cc3ccc(OC(F)F)cn3)OC2C1O.Cl.Cl.Cl (stereo partly drawn) [Compound 40, 3′-Dihydro-3′-deoxy-3′(R)-(5-(difluoromethoxy)pyridin-2-yl)acetylamino spectinomycin trihydrochloride]	–	–	2	–	–	–	–
Br.Br.Br.CNC1C(O)C(NC)C2OC3(O)C(NC(=O)Cc4nccs4)CC(C)OC3OC2C1O [Compound 19, 3′-Dihydro-3′-deoxy-3′(R)-(thiazol-2-yl) acetylamino spectinomycin trihydrobromide]	0.72 µg/mL	6.3	1	–	–	–	–
Br.Br.Br.CNC1C(O)C(NC)C2OC3(O)C(NC(=O)Cc4cccnn4)CC(C)OC3OC2C1O [Compound 14, 3′-Dihydro-3′-deoxy-3′(R)-(pyridazin-3-yl) acetylamino spectinomycin trihydrobromide]	–	12.5	2	–	–	–	–
Br.Br.Br.CNC1C(O)C(NC)C2OC3(O)C(OC(C)C[C@H]3NC(=O)Cc3ccncn3)OC2C1O (stereo partly drawn) [Compound 16, 3′-Dihydro-3′-deoxy-3′(R)-(pyrimidin-4-yl)acetylamino spectinomycin trihydrobromide]	–	25	0.5	–	–	–	–
Br.Br.Br.CNC1C(O)C(NC)C2OC3(O)C(NC(=O)Cc4cc(C(C)C)ccn4)CC(C)OC3OC2C1O [Compound 33, 3′-Dihydro-3′-deoxy-3′(R)-(4-isopropylpyridin-2-yl)acetylamino spectinomycin trihydrobromide]	0.36 µg/mL	1.6	4	6.3	4	–	–
Br.Br.Br.CNC1C(O)C(NC)C2OC3(O)C(OC(C)C[C@H]3NC(=O)Cc3nccc(Cl)c3C(C)C)OC2C1O (stereo partly drawn) [Compound 45, 3′-Dihydro-3′-deoxy-3′(R)-(4-chloro-3-isopropylpyridin-2-yl)acetylamino spectinomycin trihydrobromide]	2.3 µg/mL and 2.31 µg/mL	1.6	32	50	32	–	–
CNC1C(O)C(NC)C2OC3(O)C(OC(C)C[C@H]3NC(=O)Cc3cc(OC)c(F)cn3)OC2C1O.Cl.Cl.Cl (stereo partly drawn) [Compound 50, 3′-Dihydro-3′-deoxy-3′(R)-(5-fluoro-4-methoxypyridin-2-yl)acetylamino spectinomycin trihydrochloride]	0.92 µg/mL	3.1	2	6.3	–	–	–
CN[C@@H]1[C@H](O)[C@H](NC)[C@H]2O[C@]3(O)[C@H](O[C@@H]2[C@H]1O)O[C@H](C)C[C@H]3NC(=O)Cc1ncccn1.Cl.Cl [Compound 13, 3′-Dihydro-3′-deoxy-3′(R)-(pyrimidin-2yl)acetylamino spectinomycin dihydrochloride]	45.50 µg/mL	>200	–	–	–	45.5	39
CNC1C(O)C(NC)C2OC3(O)C(NC(=O)c4ccccn4)CC(C)OC3OC2C1O.Cl.Cl.Cl [Compound 11, 3′-Dihydro-3′-deoxy-3′(R)-pyridin-2-carboxylicamino spectinomycin trihydrochloride]	–	>200	–	–	–	–	–
Br.Br.Br.CNC1C(O)C(NC)C2OC3(O)C(NC(=O)Cc4csc(N)n4)CC(C)OC3OC2C1O [Compound 18, 3′-Dihydro-3′-deoxy-3′(R)-(2-aminothiazol-4-yl)acetylamino spectinomycin trihydrobromide]	0.62 µg/mL	6.3	1	–	–	–	–
CNC1C(O)C(NC)C2OC3(O)C(OC(C)C[C@H]3NC(=O)Cc3ccncc3)OC2C1O.Cl.Cl.Cl (stereo partly drawn) [Compound 4, 3′-Dihydro-3′-deoxy-3′(R)-(pyridin-4yl)acetylamino spectinomycin trihydrochloride]	–	12.5	–	200	–	–	–
Br.Br.Br.CNC1C(O)C(NC)C2OC3(O)C(NC(=O)Cc4ccccn4)CC(C)OC3OC2C1O [Compound 5, 3′-Dihydro-3′-deoxy-3′(S)-(pyridin-2-yl)acetylamino spectinomycin Trihydrobromide]	42.23 µg/mL	>200	–	–	–	–	–
CNC1C(O)C(NC)C2OC3(O)C(OC(C)C[C@H]3NCCc3ccccc3)OC2C1O.Cl.Cl.Cl (stereo partly drawn) [Compound 6, 3′-Dihydro-3′-deoxy-4(R)-2-phenylethylamino spectinomycin trihydrochloride]	–	–	–	200	–	–	–
